Results reported in paper PMC6325233, “A Novel Actin Binding Drug with In Vivo Efficacy” (Antimicrobial Agents and Chemotherapy, 2018).

Columns and labels:
Format in all cases: cell-based
Design in all cases: key to MIC, 50% inhibition: -: indicates absence of isolates with 50% inhibition endpoint
Rhizopus oryzae 28403 = experiment: MIC susceptibility testing; conditions: CLSI M38-A2
Experimental: (§1) Occidiofungin was purified from a liquid culture of Burkholderia contaminans MS14 as previously described ([21]). MIC susceptibility testing was performed according to the CLSI M27-A3 and M38-A2 standards for the susceptibility testing of yeasts and filamentous fungi, respectively. S. cerevisiae deletion mutants were obtained from the commercially available BY4741 deletion library (Thermo Scientific).

Aspergillus flavus 28517 = experiment: MIC susceptibility testing; conditions: CLSI M38-A2
Experimental: as §1

[1] = test system: Aspergillus fumigatus 28435; experiment: MIC susceptibility testing; conditions: CLSI M38-A2
Experimental: as §1

Mucor racemosus 27784 = experiment: MIC susceptibility testing; conditions: CLSI M38-A2
Experimental: as §1

Candida albicans 28102 = experiment: MIC susceptibility testing; conditions: CLSI M27-A3
Experimental: as §1

Aspergillus flavus 28455 = experiment: MIC susceptibility testing; conditions: CLSI M38-A2
Experimental: as §1

[2] = test system: Candida parapsilosis 28174; experiment: MIC susceptibility testing; conditions: CLSI M27-A3
Experimental: as §1

Fusarium solani 28386 = experiment: MIC susceptibility testing; conditions: CLSI M38-A2
Experimental: as §1

[3] = test system: Cryptococcus neoformans 27708; experiment: MIC susceptibility testing; conditions: CLSI M27-A3; 72 hours
Experimental: as §1

[4] = test system: Rhizopus microsporus 28506; experiment: MIC susceptibility testing; conditions: CLSI M38-A2
Experimental: as §1

Candida krusei 9541 = experiment: MIC susceptibility testing; conditions: CLSI M27-A3
Experimental: as §1

Mucor fragilis 27782 = experiment: MIC susceptibility testing; conditions: CLSI M38-A2
Experimental: as §1

[5] = test system: Rhizopus microsporus 27785; experiment: MIC susceptibility testing; conditions: CLSI M38-A2
Experimental: as §1

Candida tropicalis 9624 = experiment: MIC susceptibility testing; conditions: CLSI M27-A3
Experimental: as §1

[6] = test system: Aspergillus fumigatus 28434; experiment: MIC susceptibility testing; conditions: CLSI M38-A2
Experimental: as §1

Candida glabrata 25742 = experiment: MIC susceptibility testing; conditions: CLSI M27-A3
Experimental: as §1

[7] = test system: Cryptococcus neoformans 19526; experiment: MIC susceptibility testing (caspofungin-resistant strain); conditions: CLSI M27-A3; 72 hours
Experimental: as §1

[8] = test system: Candida parapsilosis 2006; experiment: as above; conditions: CLSI M27-A3
Experimental: as §1

occidiofungin
-: MIC, 50% inhibition (Rhizopus oryzae 28403; 48 hours) | MIC, 50% inhibition (Aspergillus flavus 28517; 24 hours) | MIC, 50% inhibition (Aspergillus flavus 28517; 48 hours) | MIC, 50% inhibition ([1]; 24 hours) | MIC, 50% inhibition ([1]; 48 hours) | MIC, 50% inhibition (Mucor racemosus 27784; 48 hours) | MIC, 50% inhibition (Candida albicans 28102; 24 hours) | MIC, 50% inhibition (Candida albicans 28102; 48 hours) | MIC, 50% inhibition (Aspergillus flavus 28455; 48 hours) | MIC, 50% inhibition ([2]; 24 hours) | MIC, 50% inhibition ([2]; 48 hours) | MIC, 50% inhibition (Fusarium solani 28386; 48 hours) | MIC, 50% inhibition [3] | MIC, 50% inhibition ([4]; 48 hours) | MIC, 50% inhibition (Candida krusei 9541; 48 hours) | MIC, 50% inhibition (Mucor fragilis 27782; 48 hours) | MIC, 50% inhibition ([5]; 48 hours) | MIC, 50% inhibition (Candida tropicalis 9624; 24 hours) | MIC, 50% inhibition (Candida tropicalis 9624; 48 hours) | MIC, 50% inhibition ([6]; 24 hours) | MIC, 50% inhibition ([6]; 48 hours) | MIC, 50% inhibition (Candida glabrata 25742; 24 hours) | MIC, 50% inhibition (Candida glabrata 25742; 48 hours) | MIC, 50% inhibition [7] | MIC, 50% inhibition ([8]; 48 hours)
8 µg/mL: MIC, 100% inhibition (Rhizopus oryzae 28403; 24 hours) | MIC, 100% inhibition (Rhizopus oryzae 28403; 48 hours) | MIC, 100% inhibition ([4]; 24 hours) | MIC, 100% inhibition ([4]; 48 hours) | MIC, 100% inhibition ([5]; 48 hours)
2 µg/mL: MIC, 100% inhibition ([1]; 24 hours) | MIC, 100% inhibition ([1]; 48 hours) | MIC, 50% inhibition (Mucor racemosus 27784; 24 hours) | MIC, 100% inhibition (Candida albicans 28102; 24 hours) | MIC, 100% inhibition (Candida albicans 28102; 48 hours) | MIC, 50% inhibition (Aspergillus flavus 28455; 24 hours) | MIC, 50% inhibition (Fusarium solani 28386; 24 hours) | MIC, 100% inhibition [3] | MIC, 50% inhibition (Candida krusei 9541; 24 hours) | MIC, 50% inhibition (Mucor fragilis 27782; 24 hours) | MIC, 50% inhibition ([5]; 24 hours) | MIC, 100% inhibition (Candida tropicalis 9624; 24 hours) | MIC, 100% inhibition (Candida tropicalis 9624; 48 hours) | MIC, 100% inhibition (Candida glabrata 25742; 24 hours) | MIC, 100% inhibition (Candida glabrata 25742; 48 hours) | MIC, 100% inhibition [7] | MIC, 50% inhibition ([8]; 24 hours)
4 µg/mL: MIC, 50% inhibition (Rhizopus oryzae 28403; 24 hours) | MIC, 100% inhibition (Aspergillus flavus 28517; 24 hours) | MIC, 100% inhibition (Aspergillus flavus 28517; 48 hours) | MIC, 100% inhibition (Mucor racemosus 27784; 24 hours) | MIC, 100% inhibition (Mucor racemosus 27784; 48 hours) | MIC, 100% inhibition (Aspergillus flavus 28455; 24 hours) | MIC, 100% inhibition (Aspergillus flavus 28455; 48 hours) | MIC, 100% inhibition ([2]; 24 hours) | MIC, 100% inhibition ([2]; 48 hours) | MIC, 100% inhibition (Fusarium solani 28386; 24 hours) | MIC, 100% inhibition (Fusarium solani 28386; 48 hours) | MIC, 50% inhibition ([4]; 24 hours) | MIC, 100% inhibition (Candida krusei 9541; 24 hours) | MIC, 100% inhibition (Candida krusei 9541; 48 hours) | MIC, 100% inhibition (Mucor fragilis 27782; 24 hours) | MIC, 100% inhibition (Mucor fragilis 27782; 48 hours) | MIC, 100% inhibition ([5]; 24 hours) | MIC, 100% inhibition ([6]; 24 hours) | MIC, 100% inhibition ([6]; 48 hours) | MIC, 100% inhibition ([8]; 24 hours) | MIC, 100% inhibition ([8]; 48 hours)
